Experimental data as given in patent US20090186024A1, “Gene Expression Signatures for Oncogenic Pathway Deregulation” (priority 2005, published 2009).

Tested on: breast cancer cell lines
Experiment: Cell proliferation assays (growth inhibition, standard MTT/MTS colorimetric assay)
Assay type: cell-based
Conditions: 96 hrs, versus DMSO controls, FIG. 4B
Procedure: FIGS. 4A-4B show pathway deregulation in breast cancer cell lines predicts drug sensitivity. A. Pathway predictions in breast cancer cell lines. The results plotted show images of the predicted probability of pathway activation (red indicates high probability, blue indicates low probability). B. Sensitivity to pathway-specific drugs. Left panel. Cells were treated with 3.75 μM of farnesyltransferase inhibitor (L-744,832) for 96 hrs. Proliferation was assayed using a standard MTS tetrazolium colorimetric method. The degree of proliferation inhibition was plotted as a function of probability of Ras pathway activation as determined in panel A. Middle panel. Same as in left panel but using farnesylthiosalicylic acid (200 μM). Right panel. Same as in left panel but using the Src pathway inhibitor SU6656 (1.5 μM), and with the degree of proliferation inhibition plotted as a function of Src pathway activation. […]
Cell and RNA preparation. […] Expression of oncogenes and their secondary targets was determined by a standard Western Blotting protocol using a TGH lysis buffer (1% Triton X-100, 10% glycerol, 50 mM NaCl, 50 mM Hepes, pH 7.3, 5 mM EDTA, 1 mM sodium orthovanadate, 1 mM PMSF, 10 μg/ml leupeptine, 10 μg/ml aprotinin). […] Protein quantitation of lysates was determined by BCA [Pierce] prior to electrophoresis with a 10-12% SDS-PAGE gel. Activation status of kinase pathways for the breast cancer cell lines was determined for growing cells (at 75% confluency) 48 hours after plating using the following methods. Ras activation is measured using a Ras Activation Assay Kit (Upstate Biotechnology) that consists of a GST fusion-protein corresponding to the human Ras Binding Domain (RBD, residues 1-149) of Raf-1. […] Western Blotting for immunoprecipitated H/K-Ras is detected using an H/K-Ras specific antibody (Santa Cruz Biotechnology, #sc-520 and sc-F234). c-Src activation was determined by Western Blotting using a phospho-Tyr416 Src antibody (Cell Signaling, #2101). […]

Compound | relation between probability of Ras pathway deregulation (gene expression prediction) and extent of cell proliferation inhibition by the drug | relation between probability of Src pathway deregulation (gene expression prediction) and extent of cell proliferation inhibition by the drug
CC(C)=CCCC(C)=CCCC(C)=CCSc1ccccc1C(=O)O [FTS, farnesylthiosalicylic acid] | close concordance and correlation | 
CC[C@H](C)[C@@H](CO[C@@H](Cc1ccccc1)C(=O)N[C@@H](CCS(C)(=O)=O)C(=O)OC(C)C)NC[C@@H](N)CS [L-744,832] | close concordance and correlation | 
CN(C)S(=O)(=O)c1ccc2c(c1)/C(=C/c1cc3c([nH]1)CCCC3)C(=O)N2 [SU6656] |  | close concordance and correlation
